molecular target: T1, C-C chemokine receptor type 10 (Homo sapiens) (UniProt P46092); test: Antagonist activity against human CCR10 expressed in human KJMGER8 cells assessed as inhibition of human recombinant CTACK-induced increase in intracellular calcium level at 100 nmol/L pre-incubated for 30 mins before human recombinant CTACK stimulation for 5 mins by FLIPR assay; format: functional, cell-based
T1 sequence (whole entry): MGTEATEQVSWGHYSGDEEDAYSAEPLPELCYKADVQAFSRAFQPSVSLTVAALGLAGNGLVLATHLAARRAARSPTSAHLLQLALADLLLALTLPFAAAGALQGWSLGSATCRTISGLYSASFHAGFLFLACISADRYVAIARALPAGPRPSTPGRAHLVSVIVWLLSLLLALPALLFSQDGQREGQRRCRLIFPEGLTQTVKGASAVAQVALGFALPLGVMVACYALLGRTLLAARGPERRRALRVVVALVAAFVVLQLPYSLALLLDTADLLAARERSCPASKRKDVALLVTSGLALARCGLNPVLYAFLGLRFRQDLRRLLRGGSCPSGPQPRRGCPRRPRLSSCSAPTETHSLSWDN

inhibition [%]	SMILES
97	CCC(=O)NS(=O)(=O)c1cnn2c(Nc3ccc(Cl)cc3Cl)c(C(=O)N3CCC(c4ccc(F)cc4)CC3)cnc12
> 100	CCC(=O)NS(=O)(=O)c1cnn2c(Nc3ccc(F)cc3Cl)c(C(=O)N3CCC4(CC3)OCc3ccccc34)cnc12
> 100	O=CNS(=O)(=O)c1cnn2c(Nc3cc(Cl)ccc3Cl)c(C(=O)N3CCC(c4ccc(F)cc4)CC3)cnc12
99.6	COC(=O)NS(=O)(=O)c1cnn2c(Nc3ccccc3Cl)c(C(=O)N3CCC(c4ccccc4)CC3)cnc12
> 100	Cc1cc(Cl)ccc1Nc1c(C(=O)N2CCC3(CC2)OCc2ccccc23)cnc2c(S(=O)(=O)NC(=O)C3CC3)cnn12
> 100	O=C(c1cnc2c(S(=O)(=O)Nc3ncccn3)cnn2c1Nc1cc(Cl)ccc1Cl)N1CCC(c2ccc(F)cc2)CC1
90.7	CCNC(=O)NS(=O)(=O)c1cnn2c(Nc3ccc(Cl)cc3Cl)c(C(=O)N3CCC(c4ccc(F)cc4)CC3)cnc12
> 100	O=C(c1cnc2c(S(=O)(=O)Nc3cccnn3)cnn2c1Nc1cc(Cl)ccc1Cl)N1CCC(c2ccc(F)cc2)CC1
> 100	Cc1cc(F)ccc1Nc1c(C(=O)N2CCC(c3ccccc3)CC2)cnc2c(S(=O)(=O)NC(=O)C(F)(F)F)cnn12
> 100	CC(=O)NS(=O)(=O)c1cnn2c(Nc3cc(F)ccc3F)c(C(=O)N3CCC(c4ccc(F)cc4)CC3)cnc12
93.4	Cc1cc(F)ccc1Nc1c(C(=O)N2CCC(c3ccccc3)CC2)cnc2c(S(=O)(=O)NC(=O)C3CC3)cnn12
> 100	CCC(=O)NS(=O)(=O)c1cnn2c(Nc3cc(C)ccc3Cl)c(C(=O)N3CCC(c4ccc(F)cc4)CC3)cnc12
> 100	CCNC(=O)NS(=O)(=O)c1cnn2c(Nc3ccc(Cl)cc3C)c(C(=O)N3CCC4(CC3)OCc3ccccc34)cnc12
> 100	O=C(NC1CC1)NS(=O)(=O)c1cnn2c(Nc3ccc(F)cc3Cl)c(C(=O)N3CCC(c4ccc(F)cc4)CC3)cnc12
95.2	CCNC(=O)NS(=O)(=O)c1cnn2c(Nc3cc(C)ccc3Cl)c(C(=O)N3CCC4(CC3)OCc3ccccc34)cnc12
68.9	Cc1cc(F)ccc1Nc1c(C(=O)N2CCC(c3ccccc3)CC2)cnc2c(S(=O)(=O)/N=C/N(C)C)cnn12
92.4	CCNC(=O)NS(=O)(=O)c1cnn2c(Nc3ccccc3Cl)c(C(=O)N3CCC(c4ccccc4)CC3)cnc12
81.8	CCNC(=S)NS(=O)(=O)c1cnn2c(Nc3ccc(F)cc3C)c(C(=O)N3CCC(c4ccccc4)CC3)cnc12
63.7	Cc1cc(F)ccc1Nc1c(C(=O)N2CCC(c3ccccc3)CC2)cnc2c(S(=O)(=O)NC(=O)Nc3ccccc3)cnn12
96.7	CCNC(=O)NS(=O)(=O)c1cnn2c(Nc3cc(Cl)ccc3Cl)c(C(=O)N3CCC(c4ccc(F)cc4)CC3)cnc12
> 100	CC(=O)NS(=O)(=O)c1cnn2c(Nc3cc(Cl)ccc3Cl)c(C(=O)N3CCC(c4ccc(F)cc4)CC3)cnc12
> 100	CC(=O)NS(=O)(=O)c1cnn2c(Nc3cccc(Cl)c3Cl)c(C(=O)N3CCC(c4ccc(F)cc4)CC3)cnc12

Source: ChEMBL document CHEMBL3727355, “Chemokine receptor activity regulator” (2014)
